row,melting point [°C],Compound
1,155 to 156,O=C(Nc1cccnc1)N1CCN(c2cncc(-c3ccc(F)cc3F)n2)CC1
2,185,CCCCN=C(N)Nc1nc(C)cc(C)n1
3,> 300,Cc1ccc(C2C3=C(CC(C)(C)CC3=O)NC3=C2C(=O)CC(C)(C)C3)cc1C
4,169 to 173,COc1cc2c(=O)ccn(C)c2cc1OC
5,236 to 238,CCCC1=C(C(=O)OCC)C(c2cccc(C(F)(F)F)c2Cl)c2c[nH]nc2N1 (centres undefined)
6,123,NNC(=O)c1cn(C2CCN(Cc3ccccc3)C2)nn1 (centres undefined)
7,159 to 160,O=C1NCCC[C@@H]1NS(=O)(=O)c1cccc(F)c1
8,160 to 162,COc1ccc(S(=O)(=O)Nc2cccnc2NC(=O)c2ccccc2C)cc1
9,98 to 102,CCCCCCCCCCCCCCCCCC(=O)Nc1cccc(N)c1
10,143,CC(C)(Oc1ccc(OCc2noc(-c3ccc(C(C)(C)C)cc3)n2)cc1)C(=O)O
11,199 to 201,CCOCCC(Cc1ccc(NC(=O)NC(=O)c2ccc(C(N)=S)cc2)cc1)C(=O)OC(C)(C)C (centres undefined)
12,158 to 162,CCOCCOCCn1ccc2c1CC(c1ccccc1Cl)C1C(=O)NC(=O)C21 (centres undefined)
13,198 to 215,CCc1ccc2sc3cc(C#N)ccc3c(=O)c2c1
14,74 to 76,CCOC(=O)CNS(=O)(=O)c1sccc1C=O
15,208 to 210,Cc1cccc(-c2n[nH]cc2-c2ccc(F)c(-c3cnc(C(C)(C)O)s3)c2)n1
16,95 to 97,COC(=O)C(Oc1ccc(C(F)(F)F)cc1)c1ccc(OCCOc2ccc(Cl)cc2)cc1 (centres undefined)
17,172 to 174,Nc1ccc(Br)c(-c2nc3ncccc3o2)c1
18,110 to 111,CCCC/C=C\CCCCCCCC(=O)Nc1nc(CC(=O)O)cs1
19,167 to 170,COCc1cccc(-c2nn(C(C)c3oc4ccccc4c(=O)c3-c3cccc(F)c3)c3ncnc(N)c23)c1 (centres undefined)
20,192 to 195,CCOc1ccc(-c2ccc3c(c2)C=C(C(=O)Nc2ccc(CN(C)C4CCOCC4)cc2)CCS3=O)cc1 (centres undefined)
21,165 to 166,O=C1C(=O)c2ccccc2C2=C1SCC1(CCN(C(=O)c3ccccc3I)CC1)O2
22,133,CCOC(=O)C(C)Oc1ccc2ccc(Oc3cc(-n4c(=O)cc(C(F)(F)F)n(C)c4=O)c(F)cc3C#N)cc2c1 (centres undefined)
23,309 to 310,CCn1c(=O)c2cc(O)c(O)cc2c2cc(O)c(O)cc21
24,296,CC(C)(C)OC(=O)Nc1ccc2nc(-c3cccnc3)nn2c1

row,melting point [°C],Compound
1,58 to 61,CCCC(COS(C)(=O)=O)(OC(C)C)c1ccc(Cl)cc1Cl (centres undefined)
2,121 to 122,CS(=O)(=O)OCCc1ccc(OCc2coc(/C=C/c3ccccc3)n2)cc1
3,139,CCOc1ccc(-c2ccc(Br)cc2)cc1
4,217 to 221,CCc1nc2c(C)cc(C)nc2n1Cc1ccc(C(Cc2nnn[nH]2)c2ccccc2Cl)cc1 (centres undefined)
5,118 to 120,COC(=O)/C=C/c1cnc2ccccc2c1
6,77,CCNC(=O)Oc1cnn(C(C)(C)C)c1
7,141 to 144,CCCN(CCC)C(N)=C(C#N)C(N)=S
8,55.5 to 56.5,O=Cc1ccc2c(c1)Sc1ccccc1CC2
9,129,CCOC(=O)Nc1cc(N(C(=O)OCC)S(C)(=O)=O)c(C#N)cc1F
10,172 to 175,COCCc1nc2c(N)nc3ccccc3c2n1CCCCCS(=O)(=O)c1ccccc1
11,96.5 to 98.5,CCC1(OC)CCc2c(C)c(O)c(C)c(C)c2O1 (centres undefined)
12,152 to 154,CN(Cc1sc2c(=O)c(C(=O)NCc3ccc(Cl)cc3)cn(C)c2c1COCC[Si](C)(C)C)CC(O)c1ccc(C#N)s1 (centres undefined)
13,181 to 182,CC(C)c1ccc(-c2coc3cc(O)c(O)cc3c2=O)cc1
14,142 to 145,Cc1cc2oc(=O)c3c(c2cc1C)CCN(CCN1CCCCC1)C3
15,135 to 137,COc1ccccc1N1CCN(CCCNC(=O)c2cccc3c(=O)c(C)c(C4CCCC4)oc23)CC1
16,114 to 117,CN1CCC[C@H]1Cn1nc(-c2c(-c3ccccc3)nn3ccccc23)ccc1=O
17,175 to 177,COc1c(C2CCN(CCCCNC(=O)c3ccc(-c4ccc(Cl)s4)nc3)CC2)ccc2c1CCCC2
18,182 to 184,N#Cc1ccc2c(c1)c(CCN1C(=O)c3ccccc3C1=O)cn2Cc1ccccc1
19,130 to 132,CC[C@H](Cn1cnnc1)n1cnc2cc3c(=O)n([C@H](CC)Cn4ncnn4)cnc3cc2c1=O
20,155 to 170,COc1ccccc1N1CCN(CCCCNc2cc(Cl)nnc2Cl)CC1
21,140,c1ccc(-c2ccc(CCNc3ccncc3)cc2)cc1
22,313 to 319,CC1CC(=O)NN=C1c1ccc(Nc2nc(=O)c3ccccc3[nH]2)cc1 (centres undefined)
23,120,CNC(=O)CCCCCCCN(Cc1ccccc1)S(=O)(=O)c1ccc(Cl)c(COc2cccc3ccc(C)nc23)c1Cl
24,90,CCN(C(=O)n1nnc2cc(C)cc(C)c21)c1ccccc1

row,melting point [°C],Compound
1,178 to 179,CN(C)C(=O)Nc1snc(S(C)=O)c1C#N (centres undefined)
2,232,CC1=C(S(C)(=O)=O)C(c2ccc(Cl)c([N+](=O)[O-])c2)C2=C(CCC2=O)N1 (centres undefined)
3,66 to 70,CC(C)(Oc1ccc(CCCc2cc(-c3ccccc3)no2)cc1)C(=O)O
4,223 to 225,Cc1cccc(C)c1-n1cc(C#N)c(=O)n(SC(Cl)(Cl)Cl)c1=O
5,223 to 227,O=C(Cc1ccc([N+](=O)[O-])cc1)c1c(O)c2cccnc2n(-c2ccccc2)c1=O
6,150 to 152,Cn1cc(C2CCC(=O)CC2)c2cc(C#N)ccc21
7,> 260,Clc1ccc(C2C3=C(CCS3)NC3=C2SCC3)cc1Cl
8,59 to 61,COC(=O)CCC#Cc1cccc(Br)n1
9,189 to 192,O=C(O)c1cc2ccoc2nc1C(=O)O
10,141 to 143,COc1cc2c(c3c1OC(C)(C)C3)C(c1cccc(-c3cncnc3)c1)=NC(C)(C)C2
11,129 to 132,COCCCNc1ccc(S(N)(=O)=O)cn1
12,65 to 66,CCCCCCC(C(=O)O)c1cccc(Oc2ccccc2C)c1O (centres undefined)
13,170 to 172,COc1ccc(C2(C#Cc3cnc(N)nc3)CCC(O)CC2)cc1OC1CCCC1 (centres undefined)
14,79 to 81,CCCCC1OC(=O)c2cc(NC3CCCC3)ccc21 (centres undefined)
15,150 to 152,O=C(Oc1cc([N+](=O)[O-])cc([N+](=O)[O-])c1O)c1ccccc1
16,246 to 248,Nc1nc(COc2ccc(Cl)cc2)nc2nccnc12
17,88 to 89,COc1cc(C)c(C(=O)c2ccccc2)c(OC)c1OC
18,159 to 160,COc1ccc(-c2cc3ccccc3[nH]2)cc1NC(=S)NCCNC(=O)OC(C)(C)C
19,198 to 203,NNc1ccnc2c(NC(=O)c3ccccc3[N+](=O)[O-])cccc12
20,192 to 194,Cc1ccc(-c2cc(N)c(Cl)c(C(=O)O)n2)cc1C
21,118 to 120,CC(=O)Nc1cccc(-c2cccc(-n3cnc4cc(C(F)(F)F)ccc43)c2)c1
22,172,CCOC(=O)C1=C(C)NC(N=CCN(C)C)=C(C(=O)OCC)C1c1cccc([N+](=O)[O-])c1 (centres undefined)
23,118 to 120,CCN(CC)CCn1c2c(c3ccccc31)CCS(=O)(=O)CCC2
24,179 to 181,O=Cc1cc(C#Cc2ccccc2)c(C=O)cc1C#Cc1ccccc1

row,melting point [°C],Compound
1,163 to 164,CC1CCC(=NNc2ccccc2)c2nccc(=O)n21 (centres undefined)
2,215 to 217,ClC1=Nc2ccccc2Oc2cscc21
3,326,Cc1ccc(Sc2cc(C(=O)O)ccc2C(=O)O)cc1
4,88 to 90,COc1ccc(N2CCc3ccccc32)c([N+](=O)[O-])c1
5,159 to 162,Nc1ncc(CCCCc2ccc(Cl)cc2)c(N)n1
6,138,Cn1nc(-c2cc(C=O)c(Cl)cc2Cl)c(Cl)c1OC(F)F
7,192 to 194,CCC(CC)Nc1nc(C)nc(N2CCc3cc(OC)cc(Cl)c32)c1C#N
8,79 to 80.5,COC(=O)N=C(NC(=O)NC1CCCCC1)OC
9,175 to 179,COc1ccc(/C=C/c2nc3ccccc3c(=O)o2)cc1OC
10,79 to 80,CC(C)CNc1ccc(Cl)cc1C(O)c1ccccc1OCc1ccccc1 (centres undefined)
11,87,CS(=O)(=O)OCCOCCOC(=O)Cc1ccccc1Nc1c(Cl)cccc1Cl
12,120 to 122,CCOCn1c(C(=O)c2cc(C)cc(C)c2)c(C(C)C)c(=O)[nH]c1=O
13,133,Nc1ccc2ccccc2c1-c1c(P(=O)(c2ccccc2)c2ccccc2)ccc2ccccc12
14,158 to 160,CC(CO)CCCC(C)C1CCC2C3CC=C4CCCC(O)C4(C)C3CCC12C (centres undefined)
15,122 to 128,CCNC(=O)C1OC(n2cnc3c(NCC(c4ccccc4)c4ccccc4)nc(NC4CCCC4)nc32)C(O)C1O (centres undefined)
16,93 to 99,COc1cc(N2CCCN(C[C@H](O)CO)CC2)ccc1Nc1ncc2ccc(-c3ccccc3N(C)S(C)(=O)=O)n2n1
17,56 to 59,C#CCN(C(=O)OC(C)(C)C)C1CCc2ccc([N+](=O)[O-])cc21 (centres undefined)
18,63 to 65,COC(=O)c1cc(C)sc1NC(=O)C(C)C
19,218 to 228,COc1cc(F)ccc1-c1cncc(OC2SCC(O)C(O)C2O)c1 (centres undefined)
20,214 to 215,CCOCCCOc1ccc(-c2ccc3c(c2)C=C(C(=O)Nc2ccc(CN(C)C4CCOCC4)cc2)CCS3(=O)=O)cc1
21,218 to 222,CCOc1c(Nc2ccc(C#N)cc2)c(=O)c1=O
22,180 to 182,CN(NC1=CC(=O)NCC1)c1ccccc1
23,84 to 87,C=CS(=O)(=O)N1CCC[C@H]1C(=O)OC(C)(C)C
24,174 to 176,COc1cc(SCc2ccccc2)c([N+](=O)[O-])cc1OC

row,Compound,melting point [°C]
1,CNC1CCc2[nH]c3c(F)cc(F)cc3c2C1 (centres undefined),135 to 138
2,COc1ccc(C2(c3ccc(OC)cc3)CCN(C[C@H]3CN(C)[C@@H]4Cc5c[nH]c6cccc(c56)[C@@]4(OC)C3)CC2)cc1,215 to 222
3,CCOP(=O)(OCC)N1CCN(c2cc3c(cc2F)c(=O)c(C(=O)O)cn3C2CC2)CC1,192 to 193

# — a melting point compilation (Tetko et al.; mined from patent text by program, amines drawn as free bases though some values may be those of a salt)
